Experimental data from patent publication US11214803B2, “Modulators of YAP1 expression” (Ionis Pharmaceuticals, Inc., priority 2019, dated 2022).
Strand notation (5' to 3'): a small letter for the sugar, then the base; units joined by * are phosphorothioate-linked, units joined directly phosphodiester-linked; [ ] holds rarer units or linkages, { } end groups; capitals alone tell only the bases. k = constrained ethyl (cEt); [5mC] = 5-methylcytosine; d = 2'-deoxy (DNA)

How the values were obtained:
[1] = Tolerability in CD-1 mice, plasma chemistry markers (Example 15); type: in vivo; conditions: male CD-1 mice, 50 mg/kg s.c. twice a week for four weeks (8 treatments), day 26
Method: CD-1 mice were treated with modified oligonucleotides selected from studies described above and evaluated for changes in the levels of various plasma chemistry markers.
Groups of four male CD-1 mice at 4-5 weeks of age (obtained from Charles River) were injected subcutaneously twice a week for four weeks (for a total of 8 treatments) with 50 mg/kg of modified oligonucleotides. One group of male CD-1 mice was injected with PBS. Mice were euthanized on day 26 post start of treatment (24 hrs following the final administration).

Yap1 mRNA [2] = test: Antisense inhibition of human Yap1 in A-431 cells by cEt gapmers, single dose (Example 2, RTS4814); type: cell-based
Summary of the method: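 A-431 cells (5,000/well) took up 2,000 nM 3-10-3 cEt gapmer by free uptake for ~48 h. Yap1 mRNA was quantified by qRT-PCR with primer probe set RTS4814, normalized to RIBOGREEN total RNA, and reported as % of untreated control.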

[3] = rat, in vivo, sc, 50 mg/kg
Method: Male Sprague-Dawley rats were maintained on a 12-hour light/dark cycle and fed ad libitum with Purina normal rat chow. Groups of 4 Sprague-Dawley rats each were weekly injected subcutaneously with 50 mg/kg of Ionis oligonucleotide for 6 weeks (total 7 doses). Forty-eight hours after the last dose, the rats were euthanized; and organs, urine and plasma were harvested for further analysis.
To evaluate the effect of Ionis oligonucleotides on kidney function, urinary levels of total protein and creatinine were measured using an automated clinical chemistry analyzer (Hitachi Olympus AU400c, Melville, N.Y.).

Yap1 mRNA [4] = test: Antisense inhibition of human Yap1 in A-431 cells by cEt gapmers, single dose (Example 3, RTS36584); type: cell-based
Summary of the method: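 A-431 cells (5,000/well) took up the 3-10-3 cEt gapmers by free uptake at 2,000 nM for about 48 h. Yap1 mRNA was measured by RT-qPCR with primer probe set RTS36584, normalized to RiboGreen total RNA, and given as % of untreated control.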

[5] = test system: subcutaneous DEN carcinomas; test: Tumor volume in DEN-HCC model, in combination with a-PD1 antibody (Example 49); type: in vivo, C57BL/6 mice; conditions: for Average Tumor Volume: DEN-HCC subcutaneous model, C57BL/6 mice
Method: N-nitrosodiethylamine (DEN) is administered at 25 mg/kg into 15 day old C57/BL6 mice. Carcinomas form 6 months post injection. After formation, carcinomas were then dissected from the liver and passaged subcutaneously into C57BL/6 male mice at 4-6 weeks of age to establish a subcutaneous model. For this experiment, mice were passaged with P8 subcutaneously established DEN carcinomas, rendering P9 for the duration of the experiment. Subcutaneous carcinomas are found to form at 4-6 weeks post implantation. Modified oligonucleotides 792169 (control compound) and 715491 (YAP-1 targeting modified oligonucleotide) were treated subcutaneously into groups of 7-8 mice at 10 mg/kg/week 5 times a week for 11 weeks (total of 55 doses). The PBS-only treated group and the control group were treated 5 times a week for 4 weeks (total of 20 doses). α-PD1 antibody (BioXCell) was treated intraperitoneally at 10 mg/kg/week twice a week for 4 weeks (total of 8 doses). F.D. refers to mice that were sacrificed because their tumor volume became too large.

## 715487 (kA*kT*kT*dA*d[5mC]*dT*dT*d[5mC]*dA*dT*dA*dG*d[5mC]*kT*kT*kA) [compound 715487]
[1]
  ALB: 1.9 g/dL
  ALT: 66 U/L
  AST: 113 U/L

## 958499 (ATTAGAGTATGTGGCA; 3-10-3 cEt gapmer, further chemistry not given here) [compound 958499]
Yap1 mRNA [2]; Table 32, Yap1 mRNA, percent of untreated control, 3-10-3 cEt gapmers targeting SEQ ID NO.: 1, and 2
  YAP1 (% UTC): 2 % UTC
Yap1 mRNA [2]; Table 33, Yap1 mRNA, percent of untreated control, 3-10-3 cEt gapmers targeting SEQ ID NO.: 1, and 2
  YAP1 (% UTC): 4 % UTC
Yap1 mRNA [2]; Yap1 mRNA as percent of untreated control, A-431 cells, 3-10-3 cEt gapmers targeting SEQ ID NO.: 1, and 2, Table 30
  YAP1 (% UTC): 1 % UTC
Yap1 mRNA [2]; Yap1 mRNA as percent of untreated control, A-431 cells, 3-10-3 cEt gapmers targeting SEQ ID NO.: 1, and 2, Table 31
  YAP1 (% UTC): 1 % UTC
[3]
  URINE P/C ratio (total protein to creatinine ratio): 5
Yap1 mRNA [4]; Table 26, Yap1 mRNA by 3-10-3 cEt gapmers targeting SEQ ID NO.: 1, and 2, percent of untreated control
  YAP1 (% UTC): 1 % UTC
Yap1 mRNA [4]; Table 27, Yap1 mRNA by 3-10-3 cEt gapmers targeting SEQ ID NO.: 1, and 2, percent of untreated control
  YAP1 (% UTC): 2 % UTC
Yap1 mRNA [4]; Table 28, Yap1 mRNA as percent of untreated control, 3-10-3 cEt gapmers targeting SEQ ID NO.: 1, and 2
  YAP1 (% UTC): 2 % UTC
Yap1 mRNA [4]; Table 29, Yap1 mRNA as percent of untreated control, 3-10-3 cEt gapmers targeting SEQ ID NO.: 1, and 2
  YAP1 (% UTC): 2 % UTC
Yap1 mRNA [4]; Table 34, Yap1 mRNA as percent of untreated control, 3-10-3 cEt gapmers targeting SEQ ID NO: 1 and 2, single dose
  YAP1 (% UTC): 1 % UTC
Yap1 mRNA [4]; Table 35, Yap1 mRNA as percent of untreated control, 3-10-3 cEt gapmers targeting SEQ ID NO: 1 and 2, single dose
  YAP1 (% UTC): 2 % UTC

## CGCCGATAAGGTACAC (cEt gapmer, phosphorothioate backbone, further chemistry not given here) [ION 792169, reference compound]
[5]; day 1 on treatment
  Average Tumor Volume: 354 mm3
[5]; day 5 on treatment
  Average Tumor Volume: 376 mm3
[5]; day 8 on treatment
  Average Tumor Volume: 414 mm3
[5]; day 11 on treatment
  Average Tumor Volume: 523 mm3
[5]; day 15 on treatment
  Average Tumor Volume: 604 mm3
[5]; day 18 on treatment
  Average Tumor Volume: 633 mm3
[5]; day 23 on treatment
  Average Tumor Volume: 773 mm3
[5]; day 25 on treatment
  Average Tumor Volume: 864 mm3
[5]; day 28 on treatment
  Average Tumor Volume: 802 mm3
[5]; day 31 on treatment
  Average Tumor Volume: F.D.
[5]; day 35 on treatment
  Average Tumor Volume: F.D.
[5]; day 38 on treatment
  Average Tumor Volume: F.D.
[5]; day 43 on treatment
  Average Tumor Volume: F.D.
[5]; day 45 on treatment
  Average Tumor Volume: F.D.
[5]; day 49 on treatment
  Average Tumor Volume: F.D.
[5]; day 54 on treatment
  Average Tumor Volume: F.D.
[5]; day 58 on treatment
  Average Tumor Volume: F.D.
[5]; day 61 on treatment
  Average Tumor Volume: F.D.
[5]; day 65 on treatment
  Average Tumor Volume: F.D.
[5]; day 68 on treatment
  Average Tumor Volume: F.D.
[5]; day 72 on treatment
  Average Tumor Volume: F.D.
[5]; day 75 on treatment
  Average Tumor Volume: F.D.
[5]; day 79 on treatment
  Average Tumor Volume: F.D.
[5]; subcutaneous DEN carcinomas in C57BL/6 male mice, 10 mg/kg/week, oligonucleotide subcutaneously, antibody intraperitoneally
  tumor volume (outcome in words): sacrificed before the end of the experiment because their tumor volume became too large

## 958499 (kA*kT*kT*dA*dG*dA*dG*dT*dA*dT*dG*dT*dG*kG*k[5mC]*kA) [Compound 958499]
Yap1 mRNA [2]; Table 18, A-431 cells, 5,000 cells per well, free uptake, 2,000 nM modified oligonucleotide, approx. 48 hours, RTS4814, normalized to RIBOGREEN, Yap1 mRNA as percent of untreated control
  YAP1 (% UTC): 1 % UTC
Yap1 mRNA [2]; Table 19, A-431 cells, 5,000 cells per well, free uptake, 2,000 nM modified oligonucleotide, approx. 48 hours, RTS4814, normalized to RIBOGREEN, Yap1 mRNA as percent of untreated control
  YAP1 (% UTC): 2 % UTC
Yap1 mRNA [2]; Table 20, Yap1 mRNA, percent of untreated control, 3-10-3 cEt gapmers targeting SEQ ID NO.: 1 and 2
  YAP1 (% UTC): 1 % UTC
Yap1 mRNA [2]; Table 21, Yap1 mRNA, percent of untreated control, 3-10-3 cEt gapmers targeting SEQ ID NO.: 1 and 2
  YAP1 (% UTC): 1 % UTC
Yap1 mRNA [2]; Table 22, Yap1 mRNA as percent of untreated control, 3-10-3 cEt gapmers, single dose
  YAP1 (% UTC): 1 % UTC
Yap1 mRNA [2]; Table 23, Yap1 mRNA as percent of untreated control, 3-10-3 cEt gapmers, single dose
  YAP1 (% UTC): 2 % UTC
Yap1 mRNA [2]; Table 24, Yap1 mRNA as percent of untreated control, 3-10-3 cEt gapmers targeting SEQ ID NO.: 1, and 2
  YAP1 (% UTC): 2 % UTC
Yap1 mRNA [2]; Table 25, Yap1 mRNA as percent of untreated control, 3-10-3 cEt gapmers targeting SEQ ID NO.: 1, and 2
  YAP1 (% UTC): 1 % UTC
Yap1 mRNA [4]; Table 12, A-431 cells, 5,000 cells per well, free uptake, 2,000 nM modified oligonucleotide, approx. 48 hours, RTS36584, normalized to RIBOGREEN, Yap1 mRNA relative to untreated control cells
  YAP1 (% UTC): 1 % UTC

## 1076453 (GTAATATTGCAATCTG; 3-10-3 cEt gapmer, further chemistry not given here) [compound 1076453]
[3]
  URINE P/C ratio (total protein to creatinine ratio): 5
